Experiment [1] relates to human neuroblastoma SK-N-MC cells. As to the kind of experiment: Protection against neuronal death induced by oxidative stress (XXO), WST-1 test. As to conditions: XXO 10 μM-60 mU/ml, 22 h, at 10 μg/ml, protection at 4, 10 and 20 μg/ml. In kind it is cell-based. Here is the method:
To perform this assay, the inhibition caused by the NST0005 compound [(1S,3R,7S,8S,8aR)-1,2,3,7,8,8a-hexahydro-3,7-dimethyl-8-[2-[(2R,4R)-tetrahydro-4-hydroxy-6-oxo-2H-pyran-2-yl]ethyl-1-naphthalenyl 2,2-dimethyl-propanoate] of cell death caused by the treatment with xanthine/xanthine oxidase (XXO) which, as has already been mentioned, generates oxidative damage (produces free radicals such as hydrogen peroxide, superoxide anion, hydroxyl radical) which triggers cell death, was analyzed. These cells [SK-N-MC], not exceeding 15 passages, were seeded on 96-well plates treated for adherent cells with a cell concentration of 5×10^4 cells/well; 3 wells of the plate were seeded for each condition of the assay.
After 24 h of cell incubation at 37° C. and 5% CO2, the cell treatments were performed with 100 μl of total volume for the following conditions: (i), control (culture medium); (ii), xanthine/xanthine oxidase (XXO) [10 μM-60 mU/ml]; and (iii), XXO [10 μM-60 mU/ml] and NST0005 at different concentrations [4, 10, 20 and 40 μg/ml].
The cells were incubated (at 37° C. and 5% CO2) with these treatments for 22 h, after which time the WST-1 reagent (Roche) was added. […] The formazan which is formed can be detected colorimetrically since it has an absorbance of 440 nm. The reading was taken in a plate reader at 440 nm 2 hours after adding the reagent. […]

The subject of another experiment is SK-N-MC cells. Put plainly: Inhibition of camptothecin-induced apoptosis by flow cytometry (propidium iodide, sub-G1). Conditions: Homo sapiens, camptothecin 50 μM, 6 h, at 4 μg/ml, read-out: maximum inhibition of apoptosis relating to apoptosis caused by camptothecin (flow cytometry). The format is cell-based, human. On the procedure: To that end, the inhibition caused by the NST0005 compound of apoptosis caused by the treatment with camptothecin (Campt) was analyzed. The SK-N-MC cells, not exceeding 15 passages, were seeded on 6-well plates treated for adherent cells with a cell concentration of 8×10^5 cells/well; 2 wells of the plate were seeded for each condition of the assay.
After 24 h of cell incubation at 37° C. and 5% CO2 the cell treatments were performed with 2 ml of total volume for the following conditions: (i), control (culture medium); (ii), camptothecin [50 μM]; (iii) camptothecin [50 μM] and Z-VAD-fmk [50 μM] (Alexis), as positive control of inhibition; and (iv), 50 μM camptothecin with NST0005 at different concentrations [4, 10, 40 and 100 μg/ml].
The cells were incubated (at 37° C. and 5% CO2) with these treatments for 6 h, after which time they were pooled together with their culture medium and centrifuged at 300×g for 5 minutes. The medium was removed, a washing was performed with phosphate buffered saline (PBS) and they were fixed for 2 minutes with 500 μl of 70% ethanol at −20° C. […] After this time, they were analyzed by flow cytometry, comparing the fluorescence of the propidium iodine against the amount of DNA. The percentage of apoptosis was measured on the sub-G1 region of each of the conditions. […]
On the technique in general: Flow cytometry measures light scatter and fluorescence of single cells or particles in a stream.

From US20110319484A1, “NEUROPROTECTIVE COMPOUNDS” (Parque Tecnologico de Ciencias de la Salud, priority 2009, published 2011) come the findings set out here.

For orientation: inhibition means the relative decrease from the control value, in per cent. `C[C@H]1C=C2C=C[C@H](C)[C@H](CC[C@@H]3C[C@@H](O)CC(=O)O3)[C@H]2[C@@H](OC(=O)C(C)(C)C)C1` [NST0005]: the “maximum reduction of the percentage of cell death relating to death caused by XXO” value in experiment [1] was 50%. Besides, the inhibition at 4 µg/mL with SK-N-MC cells stood at 17%.
